In paper PMC8429736, “Pharmacological characterization of mutant huntingtin aggregate-directed PET imaging tracer candidates” (Scientific Reports, 2021):

How the values were obtained:
[1] = molecular target: Q46 aggregates; assay: RBA competition binding against tritiated 3, Q46 aggregates; settings: 0.3 nM tritiated 3 as radioligand; 1 µM aggregates; mean ± SD
Protocol: For the competition assay format, Q46 or Exon1-Q46 aggregates at 1 µM (sample volume 150 µL) were pre-incubated in a 96-well round bottom plate (Corning, #3365) for 20 min with test compounds at room temperature (assay buffer 50 mM Tris–HCl pH 8.0, 150 mM NaCl). […] Radioligand 3 at 0.3 nM was added and incubated for 1 h at 37 °C.
Samples were then transferred onto a 96-well GF/B filter plate (Perkin Elmer, #6005177) using a Filtermate Harvester, aspirated by vacuum and wells washed twice with 200 µL PBS. After drying the filter plates for 1 h at 55 °C the back of the plate was sealed with aluminum cover and 30 µL of scintillation fluid (Perkin Elmer, #6013641) per well was added. The tops of the plates were sealed, and the plates were incubated for 15 min in the dark and counted in a TopCount or MicroBeta2 reader (both Perkin Elmer).
Raw sample data collected as counts per minute (cpm) were normalized towards assay controls: 0% inhibition = radioligand + protein + vehicle, 100% inhibition = radioligand + protein + 1 µM unlabeled ligand. A 4-parameter […] fit was applied to generate IC50 values.

[2] = In vitro ARG, single concentration, WT mouse brain sections; format: binding; settings: 0.5 nM
Protocol: Twenty µm-thick sections were prepared from brains of disease mouse models and WT mice or human post-mortem brain samples by using a cryostat, mounted on superfrost slides and stored at -80 °C for a maximum of 2 weeks. On the day of the experiment, slides were adapted to room temperature for 30 min and then equilibrated by immersion into assay buffer (50 mM Tris–HCl pH 7.4; 120 mM NaCl; 5 mM KCl; 2 mM CaCl2; 1 mM MgCl2) for 20 min at room temperature.
Radioligand solutions were prepared in assay buffer. Optimal radioligand concentrations were determined in advance based on signal-to-background ratio obtained in mouse or human brain tissue. The solutions were mixed in a Coplin jar (Sigma, S5516-6EA) by gently shaking at 175 rpm for 10 min at room temperature. Sections were incubated by immersion into assay buffer containing either only radioligand (total binding or TB) or radioligand plus 10 µM of unlabeled compound (non-specific binding or NSB) for 60 min at room temperature. Afterwards slides were washed three times for 10 min with ice-cold washing buffer (50 mM Tris–HCl (pH 7.4)) at 4 °C and dipped for three seconds in ice-cold distilled water to remove buffer salts. The slides were dried for 3 h at 30 °C and exposed for 96 h to a Tritium Phosphor Screen (GE Healthcare, Fuji BAS-TR 2025 E) Stored radiation energy on the screen was scanned using a Phosphorimager (GE Healthcare, Typhoon FLA 7000). Densitometric data analysis of radioligand binding was performed using the MCID Analysis 7.1 software (Interfocus Imaging Ltd.). Radioisotope concentration standards (American Radiolabeled Chemicals, ART 0123C and ART 0123B) were exposed with each specimen to enable conversion of density values into tissue-equivalent ligand concentrations (e.g., fmol/mg tissue). A standard curve was created to relate the system´s internal relative optical density measurement (ROD; an inverse logarithmic function of gray level values) to the set of standard values (e.g., isotope concentration). The standard´s isotope concentration (e.g., nCi/mg) is therefore converted into tissue-equivalent ligand concentrations (e.g., fmol/mg tissue) by referring to the radioligand´s specific activity (e.g., Ci/mmol) and including decay-correction. After phosphor screen exposure the human brain sections were stained for 4 min with 0.1% toluidine blue dye solution (Sigma-Aldrich) and rinsed twice in distilled water. To differentiate gray and white matter, the slides were decolorized with 70% ethanol (Merck) for 2–5 min followed by rinse in distilled water. Gray matter appears as gray color and white matter as bluish.

[3] = tested on: beta amyloid/tau aggregates in post-mortem AD patient brain homogenates; assay: ADbh RBA competition format; format: binding, human; settings: radioligand 4; compound 1 µM
Protocol: (§1) For RBA in vitro binding assays, brain tissue was sliced (50 µm), weighed and homogenized in PBS (Gibco, 14190-94), 0.1% BSA with a glass pestle (10 strokes) at a concentration of 12–15 mg wet tissue per mL buffer. The crude homogenate concentration was then adjusted to 10 mg/mL (wet tissue) and stored as single-use aliquots at -80 °C.
RBA experiments using Alzheimer’s disease brain homogenates (ADbh RBA) followed the same assay principle as the RBA with recombinant HTT protein, using 0.68 mg/mL homogenate (100 µg per well with 150 µL assay volume) in assay buffer PBS, 0.01% Pluronic F127 (Sigma. P2443) and 1% DMSO after compound addition. […] Incubation at room temperature was conducted for 20 min after compound addition and for 5 h after radioligand addition. For the competition format, raw cpm were normalized towards assay controls as before, to obtain inhibition between 0 and 100%. For saturation binding, raw cpm were converted into nM as before, using a calibration line of total added radioligand, and normalized to mg of added homogenate to finally obtain pmol/mg.

[4] = molecular target: beta amyloid plaques (6E10 antibody) (Homo sapiens, UniProt P05067); assay: HR ARG co-registration with 6E10 antibody, human AD brain sections; format: binding; settings: 10 nM CHDI-180, 10 nM CHDI-626, 0.1 nM PiB, 1 nM T808
[5] = tested on: R6/2 brain homogenates; assay: RBA with R6/2 brain homogenates; format: binding, mouse; settings: data not shown
Protocol: as §1
For saturation binding experiments, aggregate lysate preparation and final concentration in the assay, assay buffer, incubation times and plate processing were identical to the competition format. Radioligand was titrated up to 100 nM. Raw cpm were converted into nM using a calibration line of total added radioligand without washing and filtering (spiked onto the filter plate and dried) (e.g., X) and normalized to the concentration of protein (e.g., Y) to finally obtain […] (e.g., X/Y). Specific binding (SB) was calculated as full binding minus full competition (in the presence of excess unlabeled ligand) and a hyperbolic mono-phasic fit was applied using GraphPad Prism to determine Kd and Bmax.

Chain of beta amyloid plaques (6E10 antibody) (P05067 672-713 limits assumed): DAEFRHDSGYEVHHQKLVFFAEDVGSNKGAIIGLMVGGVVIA

Question: With `COc1ccc(COc2ccc3oc(-c4ccc(=O)n(C)n4)nc3c2)nc1` [CHDI-180] as the compound, how does the IC50 [1] read?
Answer: Its IC50 is 1.2 ± 0.5 nM.

Question: What about the NSB ([2]; 3 month WT, CTX) of the same compound?
Answer: Its NSB is 0.6 ± 0.5 fmol/mg.

Question: What about the SB ([2]; 3 month WT, CTX) of the same compound?
Answer: Its SB is 1.3 ± 1.0 fmol/mg.

Question: And the TB ([2]; 3 month WT, CTX)?
Answer: The TB was 1.9 ± 0.5 fmol/mg.

Question: And the NSB ([2]; 3 month WT, HPC)?
Answer: Its NSB is 0.5 ± 0.6 fmol/mg.

Question: What about the SB ([2]; 3 month WT, HPC) of the same compound?
Answer: The SB was 1.6 ± 0.6 fmol/mg.

Question: What about the TB ([2]; 3 month WT, HPC) of the same compound?
Answer: The TB was 2.0 ± 0.4 fmol/mg.

Question: And the NSB ([2]; 3 month WT, STR)?
Answer: Its NSB is 0.7 ± 0.6 fmol/mg.

Question: And the SB ([2]; 3 month WT, STR)?
Answer: Its SB is 1.1 ± 0.4 fmol/mg.

Question: And the TB ([2]; 3 month WT, STR)?
Answer: Its TB is 1.8 ± 0.3 fmol/mg.

Question: What about the NSB ([2]; 6 month WT, CTX) of the same compound?
Answer: The NSB was 0.5 ± 0.6 fmol/mg.

Question: And the SB ([2]; 6 month WT, CTX)?
Answer: Its SB is 1.2 ± 0.5 fmol/mg.

Question: What about the TB ([2]; 6 month WT, CTX) of the same compound?
Answer: Its TB is 1.8 ± 0.1 fmol/mg.

Question: What about the NSB ([2]; 6 month WT, HPC) of the same compound?
Answer: The NSB was 0.6 ± 0.8 fmol/mg.

Question: And the SB ([2]; 6 month WT, HPC)?
Answer: Its SB is 1.5 ± 0.1 fmol/mg.

Question: What about the TB ([2]; 6 month WT, HPC) of the same compound?
Answer: The TB was 2.2 ± 0.7 fmol/mg.

Question: And the NSB ([2]; 6 month WT, STR)?
Answer: Its NSB is 0.4 ± 0.5 fmol/mg.

Question: What about the SB ([2]; 6 month WT, STR) of the same compound?
Answer: The SB was 1.6 ± 0.1 fmol/mg.

Question: What about the TB ([2]; 6 month WT, STR) of the same compound?
Answer: Its TB is 2.0 ± 0.6 fmol/mg.

Question: And the NSB ([2]; 9 month WT, CTX)?
Answer: The NSB was 0.1 ± 0.2 fmol/mg.

Question: What about the SB ([2]; 9 month WT, CTX) of the same compound?
Answer: Its SB is 1.2 ± 0.2 fmol/mg.

Question: And the TB ([2]; 9 month WT, CTX)?
Answer: The TB was 1.3 ± 0.4 fmol/mg.

Question: And the NSB ([2]; 9 month WT, HPC)?
Answer: Its NSB is 0.6 ± 0.8 fmol/mg.

Question: And the SB ([2]; 9 month WT, HPC)?
Answer: Its SB is 1.1 ± 0.5 fmol/mg.

Question: What about the TB ([2]; 9 month WT, HPC) of the same compound?
Answer: The TB was 1.8 ± 0.5 fmol/mg.

Question: What about the NSB ([2]; 9 month WT, STR) of the same compound?
Answer: The NSB was 0.0 ± 0.0 fmol/mg.

Question: And the SB ([2]; 9 month WT, STR)?
Answer: Its SB is 1.6 ± 0.1 fmol/mg.

Question: What about the TB ([2]; 9 month WT, STR) of the same compound?
Answer: The TB was 1.6 ± 0.1 fmol/mg.

Question: What about the NSB ([2]; 12 month WT, CTX) of the same compound?
Answer: The NSB was 0.1 ± 0.1 fmol/mg.

Question: What about the SB ([2]; 12 month WT, CTX) of the same compound?
Answer: The SB was 1.2 ± 0.2 fmol/mg.

Question: And the TB ([2]; 12 month WT, CTX)?
Answer: The TB was 1.3 ± 0.3 fmol/mg.

Question: What about the NSB ([2]; 12 month WT, HPC) of the same compound?
Answer: The NSB was 0.0 ± 0.1 fmol/mg.

Question: And the SB ([2]; 12 month WT, HPC)?
Answer: Its SB is 1.6 ± 0.5 fmol/mg.

Question: What about the TB ([2]; 12 month WT, HPC) of the same compound?
Answer: The TB was 1.6 ± 0.4 fmol/mg.

Question: And the NSB ([2]; 12 month WT, STR)?
Answer: Its NSB is 0.2 ± 0.2 fmol/mg.

Question: What about the SB ([2]; 12 month WT, STR) of the same compound?
Answer: The SB was 1.2 ± 0.2 fmol/mg.

Question: What about the TB ([2]; 12 month WT, STR) of the same compound?
Answer: Its TB is 1.3 ± 0.0 fmol/mg.

Question: What about the “inhibition at 1 µM” value [3] of the same compound?
Answer: The value was ~ 50%.

Question: And the “co-registration with 6E10-positive beta amyloid plaques” value [4]?
Answer: The value was “low density binding”.

Question: What about the binding signal [5] of the same compound?
Answer: Its binding signal is “no appropriate binding signal”.
